From ChEMBL document CHEMBL1152560, “Substituted 2-arylbenzothiazoles as kinase inhibitors: hit-to-lead optimization” (Bioorg Med Chem, 2009) come the findings set out here.

In experiment [1] the target is Mitogen-activated protein kinase 8 (Homo sapiens) (UniProt P45983). Briefly: Residual activity of JNK1 at 10 uM by microplate scintillation counting.
Experiment [2] relates to RAF proto-oncogene serine/threonine-protein kinase (Homo sapiens), P04049 [Y340D,Y341D]. Briefly: Residual activity of RAF1 Y340D/Y341D mutant at 10 uM by microplate scintillation counting.
For experiment [3], the target named is Calcium/calmodulin-dependent protein kinase type 1D (Homo sapiens) (UniProt Q8IU85). The experiment is described as follows: Residual activity of CAMK1D at 10 uM by microplate scintillation counting.
For experiment [4], the target named is T1, Serine/threonine-protein kinase 17A (Homo sapiens) (UniProt Q9UEE5).
T1 sequence (whole entry): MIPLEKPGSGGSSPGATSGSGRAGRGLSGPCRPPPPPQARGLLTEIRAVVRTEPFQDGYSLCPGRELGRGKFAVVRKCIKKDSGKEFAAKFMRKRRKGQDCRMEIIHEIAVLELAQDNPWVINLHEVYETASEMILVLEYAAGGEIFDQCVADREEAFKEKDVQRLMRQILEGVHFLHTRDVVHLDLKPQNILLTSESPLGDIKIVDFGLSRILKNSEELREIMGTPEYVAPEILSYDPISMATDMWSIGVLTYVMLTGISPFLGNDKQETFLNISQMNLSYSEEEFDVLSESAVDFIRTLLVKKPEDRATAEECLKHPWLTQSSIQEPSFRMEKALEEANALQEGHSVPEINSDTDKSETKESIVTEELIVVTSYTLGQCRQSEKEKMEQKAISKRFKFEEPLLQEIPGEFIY
Briefly: Residual activity of STK17A at 10 uM by microplate scintillation counting.

The target of experiment [5] is Protein kinase C delta type (Homo sapiens) (UniProt Q05655). Briefly: Residual activity of PKCdelta at 0.1 uM by microplate scintillation counting.
The target in experiment [6] is Serine/threonine-protein kinase pim-2 (Homo sapiens) (UniProt Q9P1W9). Briefly: Residual activity of PIM2 at 1 uM by microplate scintillation counting.
For experiment [7], the target named is Tyrosine-protein kinase ABL2 (Homo sapiens) (UniProt P42684). Briefly: Residual activity of ABL2 at 10 uM by microplate scintillation counting.
The target of experiment [8] is T1, Serine/threonine-protein kinase 17A (Homo sapiens). Briefly: Residual activity of STK17A at 1 uM by microplate scintillation counting.
For experiment [9], the target named is 3-phosphoinositide-dependent protein kinase 1 (Homo sapiens) (UniProt O15530). The experiment is described as follows: Residual activity of PDK1 at 1 uM by microplate scintillation counting.
Experiment [10] addresses Ribosomal protein S6 kinase alpha-3 (Homo sapiens) (UniProt P51812). The experiment is described as follows: Residual activity of RPS6KA3 at 1 uM by microplate scintillation counting.
Experiment [11] deals with Protein kinase C eta type (Homo sapiens) (UniProt P24723). Briefly: Residual activity of PKCeta at 1 uM by microplate scintillation counting.
Experiment [12] has as its target T2, Serine/threonine-protein kinase VRK1 (Homo sapiens) (UniProt Q99986).
T2 sequence (whole entry): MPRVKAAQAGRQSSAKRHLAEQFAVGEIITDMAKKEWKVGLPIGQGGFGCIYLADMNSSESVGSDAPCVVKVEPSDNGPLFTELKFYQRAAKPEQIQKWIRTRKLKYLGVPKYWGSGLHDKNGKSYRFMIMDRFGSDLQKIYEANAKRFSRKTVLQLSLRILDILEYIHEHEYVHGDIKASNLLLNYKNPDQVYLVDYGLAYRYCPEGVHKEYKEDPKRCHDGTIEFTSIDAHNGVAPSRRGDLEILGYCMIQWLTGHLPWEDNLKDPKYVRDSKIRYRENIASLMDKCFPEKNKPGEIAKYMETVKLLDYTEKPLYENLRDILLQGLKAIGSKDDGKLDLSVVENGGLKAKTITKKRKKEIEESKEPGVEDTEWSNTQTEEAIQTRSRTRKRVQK
The experiment is described as follows: Residual activity of VRK1 at 1 uM by microplate scintillation counting.

The target of experiment [13] is T3, MAP kinase-activated protein kinase 5 (Homo sapiens) (UniProt Q8IW41).
T3 sequence (whole entry): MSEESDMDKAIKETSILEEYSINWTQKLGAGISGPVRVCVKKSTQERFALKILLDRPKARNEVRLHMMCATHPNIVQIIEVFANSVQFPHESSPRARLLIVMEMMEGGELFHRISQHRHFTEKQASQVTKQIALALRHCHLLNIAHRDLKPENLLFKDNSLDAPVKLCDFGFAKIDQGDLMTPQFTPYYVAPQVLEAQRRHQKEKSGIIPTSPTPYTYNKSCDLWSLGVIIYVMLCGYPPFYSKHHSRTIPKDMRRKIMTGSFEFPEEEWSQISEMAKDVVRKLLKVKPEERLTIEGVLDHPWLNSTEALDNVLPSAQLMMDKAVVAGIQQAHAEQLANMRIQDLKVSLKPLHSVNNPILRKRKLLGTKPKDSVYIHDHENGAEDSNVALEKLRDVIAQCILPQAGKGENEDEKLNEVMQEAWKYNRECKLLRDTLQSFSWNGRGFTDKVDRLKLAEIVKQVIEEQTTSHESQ
Briefly: Residual activity of MAPKAPK5 at 1 uM by microplate scintillation counting.

Experiment [14] has as its system Fibroblast growth factor receptor 1 (Homo sapiens), P11362 [V561M]. Briefly: Residual activity of FGFR1 V561M mutant at 1 uM by microplate scintillation counting.
Experiment [15] addresses Ribosomal protein S6 kinase beta-2 (Homo sapiens) (UniProt Q9UBS0). Briefly: Residual activity of S6Kbeta at 10 uM by microplate scintillation counting.
In experiment [16] the target is Cyclin-dependent kinase 7/ cyclin H (Homo sapiens) (UniProt P51946+P50613). Briefly: Residual activity of CDK7/CyclinH/MAT1 at 0.1 uM by microplate scintillation counting. Type of experiment: protein-complex assay.

Sequence of Protein kinase C delta type (Homo sapiens) (Q05655 whole entry, looked up): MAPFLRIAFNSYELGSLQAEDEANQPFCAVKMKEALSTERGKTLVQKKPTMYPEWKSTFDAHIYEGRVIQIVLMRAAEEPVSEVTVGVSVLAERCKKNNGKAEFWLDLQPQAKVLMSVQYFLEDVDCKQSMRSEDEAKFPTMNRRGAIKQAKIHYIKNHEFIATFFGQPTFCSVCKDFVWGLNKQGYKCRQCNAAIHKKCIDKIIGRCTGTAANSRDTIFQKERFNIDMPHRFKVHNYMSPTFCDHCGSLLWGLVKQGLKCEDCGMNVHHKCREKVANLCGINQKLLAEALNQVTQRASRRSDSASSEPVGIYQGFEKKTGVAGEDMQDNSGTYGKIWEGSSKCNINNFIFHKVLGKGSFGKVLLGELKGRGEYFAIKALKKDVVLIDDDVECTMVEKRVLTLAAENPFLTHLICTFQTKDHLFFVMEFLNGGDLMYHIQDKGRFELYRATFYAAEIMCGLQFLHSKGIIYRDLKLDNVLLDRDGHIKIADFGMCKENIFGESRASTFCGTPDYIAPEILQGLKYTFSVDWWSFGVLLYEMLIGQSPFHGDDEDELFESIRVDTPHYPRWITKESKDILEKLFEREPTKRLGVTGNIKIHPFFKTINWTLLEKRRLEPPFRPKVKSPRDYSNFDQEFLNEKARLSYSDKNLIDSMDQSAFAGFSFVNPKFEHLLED
Sequence of Protein kinase C eta type (Homo sapiens) (P24723 whole entry): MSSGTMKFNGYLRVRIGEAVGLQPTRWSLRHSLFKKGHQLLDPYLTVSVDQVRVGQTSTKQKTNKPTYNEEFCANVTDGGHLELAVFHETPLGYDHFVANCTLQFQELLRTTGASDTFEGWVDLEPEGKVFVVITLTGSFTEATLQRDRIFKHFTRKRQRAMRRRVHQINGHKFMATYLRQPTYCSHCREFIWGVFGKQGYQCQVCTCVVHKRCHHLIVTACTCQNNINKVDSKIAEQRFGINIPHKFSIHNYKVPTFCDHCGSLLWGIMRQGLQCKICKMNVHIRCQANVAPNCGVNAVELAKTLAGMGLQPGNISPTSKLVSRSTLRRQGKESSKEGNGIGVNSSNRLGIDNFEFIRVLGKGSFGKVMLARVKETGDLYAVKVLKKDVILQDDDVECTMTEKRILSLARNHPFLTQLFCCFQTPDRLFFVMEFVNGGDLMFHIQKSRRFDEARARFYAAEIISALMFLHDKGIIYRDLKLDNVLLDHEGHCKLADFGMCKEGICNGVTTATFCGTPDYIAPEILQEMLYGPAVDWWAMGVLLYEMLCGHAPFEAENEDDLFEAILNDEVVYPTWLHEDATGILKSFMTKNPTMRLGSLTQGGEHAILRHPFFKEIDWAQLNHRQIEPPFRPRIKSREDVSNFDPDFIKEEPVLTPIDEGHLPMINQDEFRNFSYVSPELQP
Sequence of Fibroblast growth factor receptor 1 (Homo sapiens), P11362 [V561M] (P11362 whole entry V561M): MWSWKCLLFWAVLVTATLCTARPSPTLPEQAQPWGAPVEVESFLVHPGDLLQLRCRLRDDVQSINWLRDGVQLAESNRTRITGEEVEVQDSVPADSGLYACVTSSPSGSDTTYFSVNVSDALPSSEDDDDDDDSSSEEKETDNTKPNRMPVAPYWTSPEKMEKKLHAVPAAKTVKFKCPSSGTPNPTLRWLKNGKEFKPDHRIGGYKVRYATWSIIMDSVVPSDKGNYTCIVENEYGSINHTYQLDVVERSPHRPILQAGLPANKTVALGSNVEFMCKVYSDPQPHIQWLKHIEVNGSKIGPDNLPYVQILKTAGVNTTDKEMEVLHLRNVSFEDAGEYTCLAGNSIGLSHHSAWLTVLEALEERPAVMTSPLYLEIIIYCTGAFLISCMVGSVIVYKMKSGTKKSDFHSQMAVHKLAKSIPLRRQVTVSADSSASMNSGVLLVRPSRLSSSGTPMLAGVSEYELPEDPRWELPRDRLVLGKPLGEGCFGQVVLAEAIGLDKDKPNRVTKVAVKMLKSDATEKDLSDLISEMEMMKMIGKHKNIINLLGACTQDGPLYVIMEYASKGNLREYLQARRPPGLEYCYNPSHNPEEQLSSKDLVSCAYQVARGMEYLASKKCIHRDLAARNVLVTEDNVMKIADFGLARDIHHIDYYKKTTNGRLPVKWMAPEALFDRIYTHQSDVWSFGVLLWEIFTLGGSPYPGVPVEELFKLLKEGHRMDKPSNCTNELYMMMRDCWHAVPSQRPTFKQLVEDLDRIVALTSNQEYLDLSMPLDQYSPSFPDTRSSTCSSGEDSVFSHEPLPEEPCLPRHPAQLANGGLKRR
Sequence of Tyrosine-protein kinase ABL2 (Homo sapiens) (P42684 whole entry): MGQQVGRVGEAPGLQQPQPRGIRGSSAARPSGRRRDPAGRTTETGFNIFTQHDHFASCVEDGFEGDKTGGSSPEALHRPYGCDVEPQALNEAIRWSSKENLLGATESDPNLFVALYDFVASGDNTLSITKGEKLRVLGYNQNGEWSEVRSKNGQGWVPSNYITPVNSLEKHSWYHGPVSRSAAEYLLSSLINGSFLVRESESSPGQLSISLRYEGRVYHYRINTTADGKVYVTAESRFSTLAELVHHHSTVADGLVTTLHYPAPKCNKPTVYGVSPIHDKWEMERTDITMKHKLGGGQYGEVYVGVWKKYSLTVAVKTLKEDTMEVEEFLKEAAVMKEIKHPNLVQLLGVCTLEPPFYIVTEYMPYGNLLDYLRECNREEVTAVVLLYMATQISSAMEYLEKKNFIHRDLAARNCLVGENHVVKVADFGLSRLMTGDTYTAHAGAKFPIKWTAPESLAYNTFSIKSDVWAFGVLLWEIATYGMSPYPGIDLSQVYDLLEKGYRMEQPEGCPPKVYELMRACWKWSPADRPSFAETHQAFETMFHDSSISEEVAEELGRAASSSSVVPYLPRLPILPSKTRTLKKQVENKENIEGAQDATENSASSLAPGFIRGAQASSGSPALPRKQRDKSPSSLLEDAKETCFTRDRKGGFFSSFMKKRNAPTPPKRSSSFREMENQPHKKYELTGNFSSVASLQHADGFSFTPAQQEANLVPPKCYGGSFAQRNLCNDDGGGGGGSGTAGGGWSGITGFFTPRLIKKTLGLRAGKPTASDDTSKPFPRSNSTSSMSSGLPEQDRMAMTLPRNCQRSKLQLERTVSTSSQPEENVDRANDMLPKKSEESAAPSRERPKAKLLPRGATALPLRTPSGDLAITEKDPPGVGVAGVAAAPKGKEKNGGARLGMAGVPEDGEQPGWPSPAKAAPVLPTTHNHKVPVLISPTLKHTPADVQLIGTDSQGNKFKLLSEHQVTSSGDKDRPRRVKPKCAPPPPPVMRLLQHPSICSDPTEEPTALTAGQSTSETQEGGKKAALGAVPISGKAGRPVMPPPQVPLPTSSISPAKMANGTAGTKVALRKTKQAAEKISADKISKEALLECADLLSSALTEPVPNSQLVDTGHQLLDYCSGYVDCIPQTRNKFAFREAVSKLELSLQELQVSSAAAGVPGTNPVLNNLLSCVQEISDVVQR
Sequence of Calcium/calmodulin-dependent protein kinase type 1D (Homo sapiens) (Q8IU85 whole entry, looked up): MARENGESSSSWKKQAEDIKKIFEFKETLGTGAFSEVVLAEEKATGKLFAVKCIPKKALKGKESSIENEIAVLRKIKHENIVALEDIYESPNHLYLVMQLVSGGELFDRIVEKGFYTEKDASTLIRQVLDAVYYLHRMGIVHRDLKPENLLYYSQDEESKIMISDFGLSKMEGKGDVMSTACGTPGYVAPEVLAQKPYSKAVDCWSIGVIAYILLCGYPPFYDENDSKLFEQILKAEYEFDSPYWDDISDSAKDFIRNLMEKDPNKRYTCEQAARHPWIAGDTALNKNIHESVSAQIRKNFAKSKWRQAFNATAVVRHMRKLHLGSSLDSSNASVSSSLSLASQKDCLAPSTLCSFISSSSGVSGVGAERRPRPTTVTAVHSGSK
Sequence of Ribosomal protein S6 kinase alpha-3 (Homo sapiens) (P51812 whole entry): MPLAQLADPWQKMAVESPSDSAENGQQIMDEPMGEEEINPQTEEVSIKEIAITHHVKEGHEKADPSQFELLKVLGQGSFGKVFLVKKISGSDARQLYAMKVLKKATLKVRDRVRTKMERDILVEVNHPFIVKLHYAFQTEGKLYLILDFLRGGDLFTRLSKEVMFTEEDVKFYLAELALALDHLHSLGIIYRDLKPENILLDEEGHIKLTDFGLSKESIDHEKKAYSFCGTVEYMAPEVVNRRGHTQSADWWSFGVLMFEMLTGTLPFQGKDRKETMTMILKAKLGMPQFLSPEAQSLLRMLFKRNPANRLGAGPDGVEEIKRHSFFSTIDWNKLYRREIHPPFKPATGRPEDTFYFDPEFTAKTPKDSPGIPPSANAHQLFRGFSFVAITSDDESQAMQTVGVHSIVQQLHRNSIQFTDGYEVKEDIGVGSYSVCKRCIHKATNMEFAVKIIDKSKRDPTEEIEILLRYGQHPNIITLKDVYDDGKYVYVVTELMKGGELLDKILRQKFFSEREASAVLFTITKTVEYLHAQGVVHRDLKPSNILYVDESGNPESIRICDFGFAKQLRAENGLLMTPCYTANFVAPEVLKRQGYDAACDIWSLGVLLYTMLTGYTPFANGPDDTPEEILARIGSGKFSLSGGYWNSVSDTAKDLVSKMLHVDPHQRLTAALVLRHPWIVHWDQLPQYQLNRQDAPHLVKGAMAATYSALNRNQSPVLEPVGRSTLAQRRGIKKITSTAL
Sequence of Mitogen-activated protein kinase 8 (Homo sapiens) (P45983 whole entry): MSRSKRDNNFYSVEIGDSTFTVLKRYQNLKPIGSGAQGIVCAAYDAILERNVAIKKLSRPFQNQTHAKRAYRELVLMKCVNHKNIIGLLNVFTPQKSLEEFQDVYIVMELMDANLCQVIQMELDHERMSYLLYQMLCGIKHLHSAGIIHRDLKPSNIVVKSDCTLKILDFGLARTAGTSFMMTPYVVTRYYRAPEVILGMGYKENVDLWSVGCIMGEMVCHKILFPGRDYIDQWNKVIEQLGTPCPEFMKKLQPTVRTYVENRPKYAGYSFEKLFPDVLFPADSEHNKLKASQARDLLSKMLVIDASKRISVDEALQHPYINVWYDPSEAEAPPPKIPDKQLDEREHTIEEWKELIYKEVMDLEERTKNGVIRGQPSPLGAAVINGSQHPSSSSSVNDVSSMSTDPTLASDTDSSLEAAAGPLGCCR

Turning to `COc1cc2c(Oc3ccc(-c4nc5ccccc5s4)cc3)ncnc2cc1OCCCN1CCCC1`, the residual activity in experiment [1] is 305%; in experiment [2], 61%; in [3], 100%; in experiment [4], 6%; in experiment [5], 88%; in experiment [6], 89%. The residual activity in [7] amounted to 147%; in experiment [8] it was 67%; in experiment [9], 102%; in experiment [10] it was 93%; in experiment [11], 122%; in experiment [12] it was 95%. For the same compound, the residual activity was 90% in experiment [13], 102% in [14], 85% in [15] and 97% in experiment [16].

`COc1cc2c(Oc3ccc(-c4nc5ccccc5s4)cc3F)ncnc2cc1OCCCN1CCN(C)CC1`: the residual activity in [1] was determined as 264%; in experiment [2], 108%; in experiment [3], 64%; in experiment [4], 1%; in experiment [5] it was 95%; in experiment [6] it was 77%. The residual activity worked out at 93% in experiment [7]; 90% in experiment [8]; 108% in experiment [9]; 95% in experiment [10]; 97% in experiment [11]; 98% in experiment [12]. The residual activity was 90% in experiment [13], 93% in experiment [14], 77% in experiment [15] and 86% in experiment [16].

In the case of `COc1cc2c(Oc3ccc(-c4nc5ccccc5s4)cc3)ncnc2cc1OCCCN1CCN(C)CC1`, the residual activity in [1] stood at 272%; in experiment [2], 74%; in experiment [3], 82%; in experiment [4] it was 19%; in experiment [5] it was 93%; in experiment [6], 63%. The residual activity was found to be 170% in experiment [7]; 62% in experiment [8]; 101% in experiment [9]; 85% in experiment [10]; 92% in experiment [11]; 103% in experiment [12]. Moreover, the residual activity in [13] turned out to be 107%; in experiment [14], 103%; in experiment [15], 75%; in experiment [16], 104%.
